Measured values taken from ChEMBL document CHEMBL3885861, “Open TG-GATES”.

Species on record: Rattus norvegicus
Experiment: Open TG-GATES - Regimen: Single
Type: toxicity, organism-based, Sprague-Dawley
Set-up: regimen Single, gender Male, age 6 weeks
Conditions: in vivo, po, 20 mg/kg, route gavage, dose level Low; for APTT / Bas / Eos / Fbg / Hb / Ht / Lym / MCH / MCHC / MCV / Mono / Neu / PT / Plat / RBC / Ret / WBC: tissue Blood; for KIDNEY_L / KIDNEY_R / KIDNEY_TOTAL: tissue Kidney; for LIVER: tissue Liver; for A/G / ALP / ALT / AST / BUN / CRE / Ca / Cl / DBIL / GLC / IP / K / LDH / Na / PL / RALB / TBIL / TC / TG / TP / gamma-GTP: tissue Plasma

## Cn1c(=O)c2[nH]cnc2n(C)c1=O.O [THEOPHYLLINE]
3 h
  TERMINAL_BW: 211.4 g
  APTT: 22.4 s
  Bas: 0%
  Eos: 1%
  Fbg: 298.2 mg/dL
  Hb: 13.1 g/dL
  Ht: 39.2%
  Lym: 80.4%
  MCH: 21.1 pg
  MCHC: 33.5%
  MCV: 62.9 fL
  Mono: 2.4%
  Neu: 15.2%
  PT: 15.8 s
  Plat: 125.8 x10_4/uL
  RBC: 623 x10_4/ul
  Ret: 7.2%
  WBC: 83.9 x10_2/uL
  KIDNEY_L: 0.9 g
  KIDNEY_R: 0.9 g
  KIDNEY_TOTAL: 1.8 g
  LIVER: 9.4 g
  A/G: 1.3
  ALP: 1988.6 IU/L
  ALT: 46.8 IU/L
  AST: 75 IU/L
  BUN: 14.4 mg/dL
  CRE: 0.2 mg/dL
  Ca: 10.6 mg/dL
  Cl: 108.8 meq/L
  DBIL: 0 mg/dL
  GLC: 181.8 mg/dL
  IP: 7.2 mg/dL
  K: 3.5 meq/L
  LDH: 159.2 IU/L
  Na: 141.8 meq/L
  PL: 137.4 mg/dL
  RALB: 3.2 g/dL
  TBIL: 0.02 mg/dL
  TC: 80.6 mg/dL
  TG: 45.4 mg/dL
  TP: 5.8 g/dL
  gamma-GTP: 1.2 IU/L
6 h
  TERMINAL_BW: 213.7 g
  APTT: 23.5 s
  Bas: 0%
  Eos: 0.6%
  Fbg: 315.4 mg/dL
  Hb: 13.8 g/dL
  Ht: 41.9%
  Lym: 82.8%
  MCH: 20.8 pg
  MCHC: 33.1%
  MCV: 63 fL
  Mono: 2.4%
  Neu: 12.8%
  PT: 15.5 s
  Plat: 129.9 x10_4/uL
  RBC: 664.6 x10_4/ul
  Ret: 7.4%
  WBC: 99.4 x10_2/uL
  KIDNEY_L: 0.9 g
  KIDNEY_R: 0.9 g
  KIDNEY_TOTAL: 1.9 g
  LIVER: 9 g
  A/G: 1.2
  ALP: 1532.8 IU/L
  ALT: 46 IU/L
  AST: 85.2 IU/L
  BUN: 9.8 mg/dL
  CRE: 0.2 mg/dL
  Ca: 10.5 mg/dL
  Cl: 108.2 meq/L
  DBIL: 0 mg/dL
  GLC: 178.2 mg/dL
  IP: 8.4 mg/dL
  K: 3.8 meq/L
  LDH: 174.8 IU/L
  Na: 141 meq/L
  PL: 126.6 mg/dL
  RALB: 3.1 g/dL
  TBIL: 0.02 mg/dL
  TC: 73.2 mg/dL
  TG: 51.8 mg/dL
  TP: 5.6 g/dL
  gamma-GTP: 1.2 IU/L
9 h
  TERMINAL_BW: 210.6 g
  APTT: 23.2 s
  Bas: 0%
  Eos: 1%
  Fbg: 297 mg/dL
  Hb: 13.5 g/dL
  Ht: 40.9%
  Lym: 78%
  MCH: 20.4 pg
  MCHC: 33%
  MCV: 61.6 fL
  Mono: 2.4%
  Neu: 18%
  PT: 15.6 s
  Plat: 121.1 x10_4/uL
  RBC: 666.6 x10_4/ul
  Ret: 6.9%
  WBC: 89.6 x10_2/uL
  KIDNEY_L: 0.9 g
  KIDNEY_R: 1 g
  KIDNEY_TOTAL: 1.9 g
  LIVER: 8.8 g
  A/G: 1.3
  ALP: 1401 IU/L
  ALT: 43.4 IU/L
  AST: 73.8 IU/L
  BUN: 11.6 mg/dL
  CRE: 0.2 mg/dL
  Ca: 10.9 mg/dL
  Cl: 106 meq/L
  DBIL: 0 mg/dL
  GLC: 170.4 mg/dL
  IP: 8.8 mg/dL
  K: 4.3 meq/L
  LDH: 168 IU/L
  Na: 140.8 meq/L
  PL: 120.8 mg/dL
  RALB: 3.1 g/dL
  TBIL: 0.014 mg/dL
  TC: 66.8 mg/dL
  TG: 51.4 mg/dL
  TP: 5.6 g/dL
  gamma-GTP: 1.2 IU/L
24 h
  TERMINAL_BW: 224.5 g
  APTT: 22.3 s
  Bas: 0%
  Eos: 1%
  Fbg: 316.8 mg/dL
  Hb: 13.7 g/dL
  Ht: 40.8%
  Lym: 80%
  MCH: 20.6 pg
  MCHC: 33.5%
  MCV: 61.5 fL
  Mono: 2.6%
  Neu: 15.2%
  PT: 15.9 s
  Plat: 146.8 x10_4/uL
  RBC: 664.2 x10_4/ul
  Ret: 7.2%
  WBC: 79.6 x10_2/uL
  KIDNEY_L: 0.9 g
  KIDNEY_R: 1 g
  KIDNEY_TOTAL: 1.9 g
  LIVER: 10.2 g
  A/G: 1.2
  ALP: 1615.2 IU/L
  ALT: 38.6 IU/L
  AST: 67.6 IU/L
  BUN: 16.4 mg/dL
  CRE: 0.2 mg/dL
  Ca: 11.1 mg/dL
  Cl: 106.2 meq/L
  DBIL: 0 mg/dL
  GLC: 186 mg/dL
  IP: 7.8 mg/dL
  K: 4.3 meq/L
  LDH: 175.8 IU/L
  Na: 142.6 meq/L
  PL: 145.8 mg/dL
  RALB: 3.1 g/dL
  TBIL: 0.006 mg/dL
  TC: 79.2 mg/dL
  TG: 94.4 mg/dL
  TP: 5.6 g/dL
  gamma-GTP: 1.8 IU/L
